Laboratory results as given in US6555523B1, “Use of cirsiliol and derivatives to treat infections” (priority 1999, dated 2003).
pIC50: −log10 of the molar value. Converted amounts (≈) assume the structure as drawn. “And” between values parts separate entries of the source, which are not always exact repeats. Identical values can stand only once. Marks after values point to notes of the source that are not given here.

Experiments:
parainfluenza HA-1 = test: CPE-inhibition (microscopic) assay, Protocol A2; format: cell-based, parainfluenza virus; conditions: HEp-2, cell Hep2 (cell blank for 3-(4′-bromophenyl) coumarin)
[1] = Drug cytotoxicity, Protocol A2 (microscopic); conditions: human, Hep2 cell monolayers
in vitro [2] = conditions: human, TC50
HIV ROJO = test: Anti-HIV assay in fresh human PBL (RT activity), Protocol D1; conditions: Human immunodeficiency virus 1, PBMC
Influenza A = test: CPE-inhibition (microscopic) assay, Protocol A2; format: cell-based; conditions: Influenza A virus, MDCK
rhinovirus 14 = test: Anti-picornaviral virus yield assay, Protocol B; format: cell-based, Rhinovirus type 14; conditions: Enterovirus
T, gondii RH = test: In-vitro anti Toxoplasma gondii activity in HFF, Protocol C; format: cell-based
Procedure: Protocol C—In-vitro testing of anti Toxoplasma gondii activity of Cirsiliol and Naringin. The compounds were tested in an in vitro cell culture assay utilizing human fibroblasts (HFF line) as the host cell. RH strain Toxoplasma gondii that has been transfected with β-galactosidase as a marker for quantitative detection of parasite number (RH Bgal), was used as the challenge organism. The compounds ere dissolved, and then diluted in cell culture medium at least 100 fold for the assays. Controls containing the maximum concentration of solvent used in the assay were run with each test. The active drugs were added and the monolayers were infected immediately at the beginning of each test. Extracellular T. gondii were removed by rinsing the monolayer, and infected host cells remained in contact with the cells for the entire test period. Each test was terminated when at least four parasite doublings could be visually identified in the control monolayers, and parasite numbers were quantitated by standard colorimetric assay for bet galactosidase activity with optical density at 550 nm as the readout. The optical density in this assay has a direct and linear correlation with parasite numbers over a 5-log parasite concentration. Toxicity in the host cells was determined by inspection for cytopathic effects and visual evaluation of cell growth.

toxoplasma = test: Inhibition of parasite levels in vivo, mice infected with 20 toxoplasma cysts; set-up: species or system Mice (C57BL/6)
Text: Inhibition of parasite levels in vivo. Mice (C57BL/6) were infected with 20 toxoplasma cysts and then treated with cirsiliol or control vehicle (0.1% DMSO). After the treatment, the level of toxoplasma cysts in the brain was reduced (about 1.5-2 fold) by the cirsiliol treatment compared to the control.

in vitro [3] = conditions: dog
[4] = Drug cytotoxicity by XTT in PBL, Protocol D1; conditions: human, TC50, PBMC, printed on each HIV isolate line
[5] = tested on: Bovine Viral Diarrhea Virus; test: Plaque formation by Bovine Viral Diarrhea Virus in MDBK cultures; format: cell-based, bovine viral diarrhea virus (BVDV); conditions: for % Reduction: plaques; for Number of plaques: Tests 1-3, control 68
Procedure: HCV in vitro assays. No well-accepted model exists for HCV and new compounds for use in the treatment of HCV are frequently tested for activity against bovine viral diarrhea virus (BVDV), a virus which is related to HCV.
A representative compound according to the present invention, naringin (i.e., 7-neohesperidoside, 5, 4′ dihydroxyflavanone) was tested for anti-BVDV activity in MDBK cells.

MDBK cells = test: Cytotoxicity in MDBK cultures (BVDV test); conditions: at 10.000 μg/mL, no toxicity at lower concentrations
Procedure: As a comparison, similar tests were conducted using ribavirin.

[6] = Drug solubility observed in the BVDV test; conditions: BVDV test in MDBK cultures; naringin solvent EtOH
HIV Merck 1022-48 = test: Anti-HIV assay in fresh human PBL (RT activity), Protocol D1; format: cell-based; conditions: Human immunodeficiency virus 1, PBMC
HIV Ba-L = test: Anti-HIV assay in fresh human monocyte-macrophages (p24 ELISA), Protocol D2; format: cell-based; conditions: Human immunodeficiency virus 1, BAL, Macrophage, Protocol D2
Procedure: Protocol D2—Assay in fresh human monocyte-macrophages. […] The cells are placed in a 96-well microtiter plate at 37° C. for 2 hours. Non-adherent cells are removed by vigorously washing six times. […] The cultures are carefully monitored for confluency during this incubation period. Infection of the cells is performed with monocytotropic HIV-1 isolates. High titer pools of each of these viruses are harvested from infected cultures of peripheral blood adherent cells and frozen in 1.0 ml aliquots at −80° C. Monocytemacrophage monolayers are infected at a multiplicity of infection (“MOI”) of 0.1.
(§1) At 2 days post-infection, the medium is decanted and the cultures washed twice with complete medium in order to remove excess virus. Fresh medium alone or medium containing the appropriate concentration of drug is added and incubation continued for an additional five days. XTT staining for cytotoxicity and HIV p24 ELISA assays for production of p24 core antigen are performed on Day 7 post infection. This is performed according the ELISA kit assay manufacturers recommendations. Control curves are generated in each assay to accurately quantitate the amount of capsid protein in each sample. Data is obtained by spectrophotometric analysis at 450 nm using a Molecular Devices Vmax plate reader. P24 concentrations are calculated form the optical density values by use of the Molecular Device software package Soft Max.
Most of the values were based on average values that were obtained from duplicate or triplicate assay wells.

[7] = Drug cytotoxicity by XTT in monocyte-macrophages, Protocol D2; format: cell-based; conditions: human; macrophage; Protocol D2; read-out: TC50
Procedure: Protocol D2—Assay in fresh human monocyte-macrophages. […] The cells are placed in a 96-well microtiter plate at 37° C. for 2 hours. Non-adherent cells are removed by vigorously washing six times. […] The cultures are carefully monitored for confluency during this incubation period. Infection of the cells is performed with monocytotropic HIV-1 isolates. […] Monocytemacrophage monolayers are infected at a multiplicity of infection (“MOI”) of 0.1.
as §1

HIV Merck 52-52 = test: Anti-HIV assay in fresh human PBL (RT activity), Protocol D1; conditions: Human immunodeficiency virus 1, PBMC
HIV Merck 144-44 = test: as above; conditions: Human immunodeficiency virus 1, PBMC
HIV Merck 1002-60 = test: as above; conditions: Human immunodeficiency virus 1, PBMC
HIV Merck 1026-60 = test: as above; conditions: Human immunodeficiency virus 1, PBMC
HIV Merck 1064-52 = test: as above; conditions: Human immunodeficiency virus 1, PBMC
HIV clade A UG/93/037 = test: as above; conditions: Human immunodeficiency virus 1, PBMC
HIV clade B BR/92/014 = test: as above; conditions: Human immunodeficiency virus 1, PBMC
HIV clade E THA/93/073 = test: as above; conditions: Human immunodeficiency virus 1, PBMC
HIV clade F BR/92/021 = test: as above; conditions: Human immunodeficiency virus 1, PBMC

O=c1oc2ccccc2cc1-c1ccc(Br)cc1 [3-(4′-Bromophenyl) coumarin, 3-(4′-bromophenyl) coumarin]
pIC50 (parainfluenza HA-1): 5.20
CC50 [1]: 100 µM

O=c1cc(-c2ccccc2)oc2ccc(O)cc12 [6-Hydroxyflavone, 6-hydroxyflavone]
CC50 (in vitro [2]): 53.9 µM
pIC50 (HIV ROJO): 4.38

COc1cc2oc(-c3ccc(O)c(O)c3)cc(=O)c2c(O)c1OC [Cirsiliol, 6,7′-dimethoxy-5,3′,4′-trihydroxyflavone]
pIC50 (parainfluenza HA-1): 5.11
pIC50 (Influenza A): < 3.70
pIC50 (rhinovirus 14): ~5.52
pIC50 (T, gondii RH): ~5.70
survival of toxoplasmosis infection (toxoplasma; 8 mice, 21-day post infection follow up, 4 of 8 vehicle control mice died by 15 days): all 8 cirsiliol treated mice survived
level of toxoplasma cysts in the brain reduced compared to the control (toxoplasma; C57BL/6 mice, 20 toxoplasma cysts, control vehicle 0.1% DMSO): 1.5-2 fold
CC50 (in vitro [3]): < 6.3 µM
CC50 [1]: 12.5 µM

O=c1cc(-c2ccccc2)oc2ccccc12 [Flavone, flavone]
CC50 (in vitro [2]): 173 µM
pIC50 (HIV ROJO): 4.06

COc1ccc([C@@H]2CC(=O)c3c(O)cc(O)cc3O2)cc1O [Hesperetin, hesperetin]
CC50 [4]: 190 µM
pIC50 (HIV ROJO): 3.87

NC(=O)c1ncn([C@@H]2O[C@H](CO)[C@@H](O)[C@H]2O)n1 [Ribavirin, ribavirin, reference compound]
ID50 ([5]; BVDV plaque formation in MDBK, table footnote, unit from the table's concentration head): 1.24 µg/mL (≈ 5.08 µM)
% Reduction ([5]; ribavirin 0.320 μg/mL): 14.10%
% Reduction ([5]; ribavirin 1.000 μg/mL): 38.99%
% Reduction ([5]; ribavirin 3.200 μg/mL): 93.65%
% Reduction ([5]; ribavirin 10.000 μg/mL, partial toxicity to the cells): 100.00* %
Number of plaques ([5]; ribavirin 0.320 μg/mL): 55 and 62 and 59
Number of plaques ([5]; ribavirin 1.000 μg/mL): 36 and 42 and 47
Number of plaques ([5]; ribavirin 3.200 μg/mL): 4 and 5
Number of plaques ([5]; ribavirin 10.000 μg/mL): 0
toxicity to the cells (MDBK cells): *Partial toxicity to the cells was observed with no toxicity at lower concentrations
drug solubility observation [6]: Comment: Positive control drug. Drug was soluble in medium.

COc1ccc(-c2cc(=O)c3c(OC)c(OC)c(OC)c(OC)c3o2)cc1 [Tangeretin, tangeretin]
pIC50 (HIV Merck 1022-48): 4.68
pIC50 (HIV Ba-L): < 4.00
CC50 at 7 days [7]: > 100 µM
pIC50 (HIV Merck 52-52): 4.74
pIC50 (HIV Merck 144-44): 4.83
pIC50 (HIV Merck 1002-60): 5.01
pIC50 (HIV Merck 1026-60): 4.70
pIC50 (HIV Merck 1064-52): 4.82
pIC50 (HIV clade A UG/93/037): 4.71
pIC50 (HIV clade B BR/92/014): 4.91
pIC50 (HIV clade E THA/93/073): 4.82
pIC50 (HIV clade F BR/92/021): 4.80
